In patent publication US20090035306A1 (KALYPSYS, INC., priority 2006, published 2009):
pEC50: −log10 of the molar value.

molecular target: T1, human TGR5 (Homo sapiens, UniProt Q8TDU6); assay: cAMP production assay in HEK293 cells stably expressing TGR5 (LANCE TR-FRET); assay type: cell-based; settings: 30 minutes stimulation, read-out: cAMP Production in 293-TGR5 Cells EC50
T1 construct: expressed in transfected cells
T1 sequence (Q8TDU6 1-330): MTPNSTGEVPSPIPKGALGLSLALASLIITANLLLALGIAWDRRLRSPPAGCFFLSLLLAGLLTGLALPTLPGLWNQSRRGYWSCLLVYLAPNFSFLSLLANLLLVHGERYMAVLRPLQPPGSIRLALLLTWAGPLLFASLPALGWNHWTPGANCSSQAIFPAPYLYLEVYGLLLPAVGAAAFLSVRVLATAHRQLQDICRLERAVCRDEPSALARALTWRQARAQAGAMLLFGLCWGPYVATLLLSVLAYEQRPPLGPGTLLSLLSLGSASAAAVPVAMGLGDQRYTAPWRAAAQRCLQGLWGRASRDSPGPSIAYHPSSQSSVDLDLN
Description: HEK293 cells stably expressing TGR5 (HEK293-TGR5) were established by stably transfecting HEK-293 cells with an expression vector (pcDNA 3.1, Invetrogen) inserted with human TGR5 cDNA using Fugene6 (Roche, Indianapolis, Ind.) according to conventional methods. Cells were grown in DMEM (invitrogen, Carlsbad, Calif.) supplemented with 10% FBS, 1% penicillin/streptomycin under geneticin selection. The presence of TGR5 transcripts in these cells was confirmed using branched DNA (bDNA, Genospectra, Inc., Fremont Calif.) following the manufacturer's protocol and using specific probes for human TGR5. cAMP production assay was performed in high throughput 1536 well format using LANCE cAMP detection kit (Perkin Elmer Inc., Boston, Mass.) according to the manufacturer's protocol. Briefly, HEK293-TGR5 cells were harvested using non-enzymatic cell dissociation buffer (Invitrogen, Carlsbad, Calif.) and suspended in DMEM supplemented with 0.1% FBS at a density of 800,000 cells/ml. Alexa antibody was added to the cell suspension, and 4 ul of the mixture was dispensed in white opaque tissue culture treated Greiner 1536 well plates (USA Scientific, Inc., Ocala, Fla.). After an overnight incubation at 37 C in an atmosphere of 10% CO2 and 95% humidity, 1 ul of 5 mM IBMX (Sigma, St. Louis, Mo.) solution in DMEM was dispensed for a final concentration of 1 mM. Cells were then stimulated with test compounds for 30 minutes, after which time 5 ul of detection reagent was added and incubated for 1-7 hrs at room temperature. TR-FRET signal was detected using the Viewlux (Perkin Elmer Inc., Boston Mass.). EC50 values were determined using Graph Pad Prizm analysis (GraphPad Software, Inc). The EC50 values for a wide range of bile acids generated from this assay were in agreement with the values published in the scientific literature. […] The symbol (+) denotes an EC50 value of ≦10 μM while the symbol (−) denotes an EC50 value of >10 μM (see Table 1).

pEC50 | SMILES
< 5.00 | COc1cc2nc(-c3ccc(F)cc3)n(NCc3ccc(Br)cc3)c(=O)c2cc1OC [Example 83, 3-(4-bromobenzylamino)-2-(4-fluorophenyl)-6,7-dimethoxy-quinazolin-4(3H)-one]
< 5.00 | COc1ccc2c(=O)n(NCc3ccc(F)cc3F)c(-c3ccc(F)cc3)nc2c1 [Example 34, 3-(2,4-difluorobenzylamino)-2-(4-fluorophenyl)-7-methoxy quinazolin-4(3H)-one]
≥ 5.00 | Cc1ccc2c(=O)n(NCc3ccc(Br)cc3)c(-c3ccccc3F)nc2c1 [Example 24, 3-(4-bromobenzylamino)-2-(2-fluorophenyl)-7-methylquinazolin-4(3H)-one]
≥ 5.00 | O=c1c2ccccc2nc(-c2ccsc2)n1NCc1ccc(Br)cc1 [Example 89, 3-(4-bromobenzylamino)-2-(thiophen-3-yl)quinazolin-4(3H)-one]
≥ 5.00 | COc1cc(-c2nc3ccccc3c(=O)n2NCc2ccc(Br)cc2)ccc1Cl [Example 74, 3-(4-Bromo-benzylamino)-2-(4-chloro-3-methoxy-phenyl)-3H-quinazolin-4-one]
< 5.00 | Cc1ccc2c(=O)n(NCc3ccc(C(F)(F)F)cc3)c(-c3ccc(F)cc3)nc2c1 [Example 82, 2-(4-fluorophenyl)-7-methyl-3-(4 (trifluoromethyl)benzylamino)quinazolin-4(3H)-one]
≥ 5.00 | CN(Cc1ccc(Br)cc1)n1c(-c2ccc(F)cc2)nc2ccccc2c1=O [Example 90, 3-((4-bromobenzyl)(methyl)amino)-2-(4-fluorophenyl)quinazolin-4(3H)-one]
≥ 5.00 | O=c1c2ccccc2nc(-c2ccccc2)n1NCc1ccc(Br)cc1 [Example 104, 3-(4-bromobenzylamino)-2-phenylquinazolin-4(3H)-one]
< 5.00 | O=C(O)c1ccc(CNn2c(-c3ccccc3F)nc3ccccc3c2=O)cc1 [Example 101, 4-((2-(2-fluorophenyl)-4-oxoquinazolin-3(4H)-ylamino)methyl)benzoic acid]
≥ 5.00 | COc1cc(-c2nc3ccccc3c(=O)n2NCc2ccc(Br)cc2)ccc1F [Example 72, 3-(4-bromobenzylamino)-2-(4-fluoro-3-methoxyphenyl)quinazolin-4(3H)-one]
≥ 5.00 | O=c1c2ccccc2nc(-c2ccccc2F)n1NCc1cccc(C(F)(F)F)c1 [Example 20, 2-(2-fluorophenyl)-3-(3-(trifluoromethyl)benzylamino)quinazolin-4(3H)-one]
≥ 5.00 | O=c1c2ccccc2nc(-c2ccccc2F)n1NCc1cc(F)cc(F)c1 [Example 13, 3-(3,5-difluorobenzylamino)-2-(2-fluorophenyl)quinazolin-4(3H)-one]
≥ 5.00 | O=c1c2ccccc2nc(-c2ccc(F)cc2)n1NCc1cc(C(F)(F)F)cc(C(F)(F)F)c1 [Example 91, 3-(3,5-bis(trifluoromethyl)benzylamino)-2-(4-fluorophenyl)quinazolin-4(3H)-one]
≥ 5.00 | O=c1c2ccccc2nc(-c2ccccc2F)n1NCc1ccc(OC(F)(F)F)cc1 [Example 23, 2-(2-fluorophenyl)-3-(4-(trifluoromethoxy)benzylamino)quinazolin-4(3H)-one]
≥ 5.00 | COc1cc(OC)cc(-c2nc3ccccc3c(=O)n2NCc2ccc(Cl)cc2)c1 [Example 59, 3-(4-chlorobenzylamino)-2-(3,5-dimethoxyphenyl)quinazolin-4(3H)-one]
≥ 5.00 | O=c1c2ccccc2nc(-c2cccc(F)c2)n1NCc1ccc(F)c(C(F)(F)F)c1 [Example 107, 3-(4-fluoro-3-(trifluoromethyl)benzylamino)-2-(3-fluorophenyl)quinazolin-4(3H)— one]
≥ 5.00 | O=c1c2ccccc2nc(-c2ccco2)n1N(Cc1ccc(Br)cc1)Cc1ccc(Br)cc1 [Example 41, 3-(bis(4-bromobenzyl)amino)-2-(furan-2-yl)quinazolin-4(3H)-one]
≥ 5.00 | O=c1c2ccccc2nc(-c2ccc(F)c(F)c2)n1NCc1ccc(Br)cc1 [Example 92, 3-(4-bromobenzylamino)-2-(3,4-difluorophenyl)quinazolin-4(3H)-one]
≥ 5.00 | O=c1c2ccccc2nc(-c2ccc(O)nc2)n1NCc1ccc(Br)cc1 [Example 117, 3-(4-bromobenzylamino)-2-(6-hydroxypyridin-3-yl)quinazolin-4(3H)-one]

pEC50 | SMILES
≥ 5.00 | O=c1c2ccccc2nc(-c2cccc(O)c2)n1NCc1ccc(Br)cc1 [Example 96, 3-(4-bromobenzylamino)-2-(3-hydroxyphenyl)quinazolin-4(3H)-one]
< 5.00 | O=c1c2ccccc2nc(-c2ccc(F)cc2)n1NCCc1cccc(Br)c1 [Example 84, 3-(3-bromophenethylamino)-2-(4-fluorophenyl)quinazolin-4(3H)-one]
≥ 5.00 | O=c1c2ccccc2nc(-c2ccc(Cl)cc2)n1NCc1ccc(F)c(F)c1 [Example 53, 2-(4-chlorophenyl)-3-(3,4-difluorobenzylamino)quinazolin-4(3H)-one]
≥ 5.00 | O=c1c2cc(F)ccc2nc(-c2cccc(F)c2)n1NCc1ccccc1 [Example 103, 3-(benzylamino)-6-fluoro-2-(3-fluorophenyl)quinazolin-4(3H)-one]
≥ 5.00 | O=c1c2cc(F)ccc2nc(-c2cccc(F)c2)n1NCc1ccc(Br)cc1 [Example 106, 3-(4-bromobenzylamino)-6-fluoro-2-(3-fluorophenyl)quinazolin-4(3H)-one]
≥ 5.00 | O=c1c2ccccc2nc(-c2ccccc2F)n1NCc1ccc(F)cc1F [Example 12, 3-(2,4-difluorobenzylamino)-2-(2-fluorophenyl)quinazolin-4(3H)-one]
≥ 5.00 | COc1cc(-c2nc3ccccc3c(=O)n2NCc2ccc(Br)cc2)ccc1C [Example 65, 3-(4-bromobenzylamino)-2-(3-methoxy-4-methylphenyl)quinazolin-4(3H)-one]
≥ 5.00 | O=c1c2ccccc2nc(-c2cccc(Cl)c2)n1NCc1ccc(Br)cc1 [Example 46, 3-(4-bromobenzylamino)-2-(3-chlorophenyl)quinazolin-4(3H)-one]
≥ 5.00 | O=c1c2ccccc2nc(-c2cccc(F)c2)n1NCc1ccc(F)cc1F [Example 7, 3-(2,4-difluorobenzylamino)-2-(3-fluorophenyl)quinazolin-4(3H)-one]
≥ 5.00 | O=c1c2ccccc2nc(C2CCCCC2)n1NCc1ccc(Br)cc1 [Example 44, 3-(4-bromobenzylamino)-2-cyclohexylquinazolin-4(3H)-one]
< 5.00 | CC(C)(C)c1ccc(CNn2c(-c3ccccc3F)nc3ccccc3c2=O)cc1 [Example 11, 3-(4-tert-butylbenzylamino)-2-(2-fluorophenyl)quinazolin-4(3H)-one]
≥ 5.00 | Cc1ccc2c(=O)n(NCc3ccc(F)cc3F)c(-c3ccccc3F)nc2c1 [Example 25, 3-(2,4-difluorobenzylamino)-2-(2-fluorophenyl)-7-methylquinazolin-4(3H)-one]
< 5.00 | COc1ccc(-c2nc3ccccc3c(=O)n2NCc2ccc(Cl)cc2)cc1OC [Example 62, 3-(4-chlorobenzylamino)-2-(3,4-dimethoxyphenyl)quinazolin-4(3H)-one]
≥ 5.00 | COc1cc(-c2nc3ccccc3c(=O)n2NCc2ccc(C(F)(F)F)cc2)ccc1C [Example 68, 2-(3-methoxy-4-methylphenyl)-3-(4-(trifluoromethyl)benzylamino)quinazolin-4(3H)-one]
≥ 5.00 | Cc1cc(-c2nc3ccccc3c(=O)n2NCc2ccc(Cl)cc2)ccc1F [Example 57, 3-(4-chlorobenzylamino)-2-(4-fluoro-3-methylphenyl)quinazolin-4(3H)-one]
< 5.00 | COc1ccc2c(=O)n(NCc3ccc(Br)cc3)c(-c3ccc(F)cc3)nc2c1 [Example 33, 3-(4-bromobenzylamino)-2-(4-fluorophenyl)-7-methoxyquinazolin-4(3H)-one]
≥ 5.00 | O=c1c2ccccc2nc(-c2cccs2)n1NCc1ccc(Br)cc1 [Example 86, 3-(4-bromobenzylamino)-2-(thiophen-2-yl)quinazolin-4(3H)-one]
≥ 5.00 | Cc1ccc2c(=O)n(NCc3ccc(Br)cc3)c(-c3ccc(F)cc3)nc2c1 [Example 81, 3-(4-bromobenzylamino)-2-(4-fluorophenyl)-7-methylquinazolin-4(3H)-one]
